Holding throughout (assay type): physicochemical
Series [1] is described as follows: Stability experiment of solid crystal form A of free base. Conditions: 60°C; room temperature, 92.5% RH; 50°C, RH = 75%; 5, 10, 20 and 30 days. As for the experimental part:
2.1 Experimental objective: To investigate the physical and chemical stability for crystal form A of free base under the conditions of a high temperature of 60°C, room temperature and a high humidity of 92.5% RH and 50°C, RH = 75% for 5, 10, 20 and 30 days and provide a basis for the storage of the compound.
2.2 Experimental scheme: About 2 mg of crystal form A of free base was taken and investigated under the conditions of 60°C in an oven, room temperature and a high humidity of RH = 92.5%, and 50°C, RH = 75% for 5, 10, 20 and 30 days. The content was determined by HPLC and an external standard method, and the changes of related substances were calculated by a chromatographic peak area normalization method (see 1.2.3 for the chromatographic conditions).

Series [2] is described as follows: Hygroscopicity experiment (crystal forms of salts and crystal form A of free base). An excerpt:
• 2.1 Experimental objective: The hygroscopicity of different crystal forms of salts of the compound was investigated under various relative humidity conditions to provide a basis for screening and storage of the crystal forms of salts of the compound. • 2.2 Experimental scheme: The crystal forms of salts of the compound were placed in saturated water vapor at different relative humidities to reach a dynamic equilibrium between the compound and the water vapor.
3.1 Experimental objective: The hygroscopicity of crystal form A of free base of the compound was investigated under various relative humidity conditions to provide a basis for screening and storage of the crystal forms of the compound.
3.2 Experimental scheme: The crystal form A of free base of the compound was placed in saturated water vapor at different relative humidities to reach a dynamic equilibrium between the compound and the water vapor. The percentage weight gain of the compound due to moisture absorption was calculated after the equilibrium.

Series [3] can be described thus: Solubility experiments in different media, crystal form A of free base. To be noted: thermodynamic from solid. As for the experimental part:
4.1 Experimental objective: The solubility of the crystal form A of free base in media such as pH1 buffer, artificial simulated gastric fluid (FaSSGF), fasted-state artificial simulated intestinal fluid (FaSSIF), and fed-state artificial simulated intestinal fluid (FeSSIF) was tested to provide a basis for the evaluation of the potential of the crystal form being manufactured as a drug.
4.2 Experimental scheme: About 1.0 mg of crystal form A of free base was weighed into 2 mL glass vials, and pH1 buffer solution, fasted-state artificial simulated intestinal fluid (FaSSIF), fed-state artificial simulated intestinal fluid (FeSSIF), and fasted-state simulated gastric fluid (FaSSGF) (1 mL for each medium) were added to each vial, respectively. The vials were placed on a micromixer for shaking overnight with the temperature set at 37°C. After 24 h, the sample solutions were filtered through 0.45 µm nylon filter membranes, and the filtrates were collected. The concentrations were determined by an external standard method and HPLC.

The solubility is how much of the substance goes into solution per volume. A low value points to little dissolved substance.

SMILES strings stand for the structures. Converted amounts (≈) assume the structure as drawn.

As to `CC(C)c1c(F)cc(N2C[C@H](N(C)S(C)(=O)=O)[C@H]2C)c2cnc(Nc3ccnc(-c4cn(C)nc4Cl)n3)cc12` [crystal form A of free base, N-((2R,3S)-1-(3-((2-(3-chloro-1-methyl-1H-pyrazol-4-yl)pyrimidin-4-yl)amino)-6-fluoro-5-isopropylisoquinolin-8-yl)-2-methylazetidin-3-yl)-N-methylmethanesulphonamide], in series [1], the stability entry is “excellent stability”. Besides, the “weight gain after moisture absorption” value in series [2] (RH 80%) is reported as “about 0.1719%”. In series [2] (RH 80%, result in words), the hygroscopicity entry is given as “weak hygroscopicity”. In series [2] (after 1 cycle of moisture absorption and desorption, 0-95% relative humidity), the “crystal form transformation (XRPD pattern)” value is reported as “no crystal form transformation occurred”. Further, the solubility at 24 h in series [3] (fassgf or other biorelevant, FaSSGF (simulated gastric fluid, fasted), 37°C) is 8 µg/mL (≈ 14 µM); in series [3] (pH1 buffer, simulated gastric fluid, pH 1, 37°C) it was 558 µg/mL (≈ 974 µM); in series [3] (FaSSIF (simulated intestinal fluid, fasted), 37°C), 10 µg/mL (≈ 17.4 µM); in series [3] (FeSSIF (simulated intestinal fluid, fed), 37°C) it was 209 µg/mL (≈ 365 µM).
